Entries after “also recorded” stand apart in the source; their conditions may differ. Where a name gives a salt, the structure may show the parent alone. Bounds are passed on as bounds.

Results on three compounds are retold here after patent US20040009947A1, “Compounds and methods for enhancing delivery of free polynucleotide” (priority 1998, published 2004).

One data set concerns NIH3T3. Briefly: Transfection of cultured cells with DNA/DOTAP +/- ATA, luciferase assay. It counts as cell-based. Particulars: very highest doses 80 μg/ml, 40 μg/ml, 10 μg/ml. Here is the method:
NIH3T3 (ATCC CRL 1658) were grown in Dulbecco's Modified Eagle's Medium and 10% calf serum. NIH3T3 were also plated at a density of 5×10^4 cells/ml in 24 well plates 24 hours prior to transfection and cells were transfected as subconfluent monolayer.
The sequential addition of appropriate amounts of serum-free DMEM, plasmid DNA ([…]), ATA in serum-free DEM and filter sterilized (see below for doses), and DOTAP (DOTAP:DNA formulation of 5 μg: 1 μg) were pippetted into a 2 ml Eppendorf tube to give a total volume of […] and mixed with a vortex mixer. A […] aliquot of the resultant transfection complex was added to each well of the cells above after the cell media had been aspirated off. The cells were incubated for 2 hours at 37° C. At the two hour time point, the mixture was removed and one ml of culture media was added to each well. […]
(§1) Relative luciferase activity was determined using the Enhanced Luciferase Assay Kit and Monolight 2010 luminometer (Analytical Luminescence Laboratories, San Diego, Calif.). […] For In vitro experiments, luciferase light emissions from 20 μl of the cell lysate were measured over a 10 second period, and results expressed as a function of the total lysate volume. For in vivo experiments, luciferase light emissions from […] of the lysate were measured over a 10 second period, and results expressed as a function of the total lysate volume.

Another data set has as its system Macaque Skin. Briefly: Intradermal injection of luciferase DNA into macaque skin +/- ATA. The note with it: 100 μg plasmid and 50 μg ATA intradermal versus plasmid alone. The data set is classed as in vivo. The method, then: To further confirm the utility of nuclease inhibitors in combination with direct DNA delivery, the activity of free plasmid DNA +/− ATA in skin tissues was tested. The plasmid and animal protocols were identical to those described above. Intradermal injections were performed by injecting 100 μl solutions using 30 gauge needle.
The experiment was further extended from murine to primate, testing direct intradermal injection on macaques. The control solution was identical to that described for the mice and rat protocols. The test solution contained 100 μg of pND21ux plasmid and 50 μg of ATA in 100 μl water. Ten macaques were included in the control group and twelve were included in the test group.

For a further data set, the system named is mouse lung. Briefly: Intratracheal plasmid transfection of mouse lung, luciferase reporter assay of lung homogenate. It counts as in vivo. The note with it: for Level of reporter protein expression after intratracheal administration of plasmid, enhancement by co-administration: intratracheal plasmid with DNAse inhibitor, mouse lung. On the technique in general: A reporter such as luciferase makes a cellular process visible.

The next data set deals with 16HBE14o. Briefly: Transfection of cultured cells with DNA/DOTAP +/- ATA, luciferase assay. The data set is classed as cell-based, human. Particulars: very highest doses 80 μg/ml, 40 μg/ml, 10 μg/ml. The method, then: The human respiratory epithelial cell line, 16HBE14o (Dieter Grunert, UCSF) was cultured on flasks coated with fibronectin (Collaborative Research-Bectin Dickinson), vitrogen (Collagen Corp), basal media (Biofluids, Inc.) and bovine serum albumen (Biofluids, Inc.) as previously described [Gruenert, 1990 #7; Cozens, 1994 #8]. Cells were cultured on twenty four well tissue culture plates (Corning) coated with the above mixture. Culture media was Eagle's modified essential medium (EM) supplemented with 10% fetal bovine serum. 16HBE 14o cells were plated at a density of 5×10^4 cells/ml 24 hours prior to transfection and cells were transfected as subconfluent monolayer. […]
as §1

Data set [1] in a line: Toxicity of intratracheal ATA/plasmid in mice (lethality, health assessment, lung histology). The data set is classed as in vivo, mouse. The note with it: for mice died: within 8 to 24 hours, pilot experiments. Here is the method: Dose-response experiments can be used to efficacy, toxicity, and effective dose of a particular enhancing agent or polynucleotide preparation. […] Histologic evaluation of treated lung tissue was subsequently performed. […] ATA is often employed for inhibition of cultured cell apoptosis, but relatively few publications describe in vivo applications. In vivo dosing employed in published reports ranges from 4 micrograms administered to the […] cerebral ventricle of gerbils to 10 mg/kg/hour continuous infusion in a hamster carotid stenosis model Based on this literature, a dose range from 0.1 mg/kg to 8 mg/kg ATA administered with 100 micrograms of plasmid was tested. […] Subsequent histologic examination was performed using lung tissue obtained from mice treated with up to 5 mg/kg ATA.
To obtain information about toxicity, mouse lung tissue was treated with ATA +/− plasmid and routine histologic analyses were performed. […] Therefore, intratracheal instillation of plasmid +/− ATA was performed, and two days later the treated tissues were histologically analyzed after inflation and fixation in formalin followed by routine hematoxylin and eosin staining in paraffin sections. Treatment groups included untreated controls, 100 μl of water for injection (WFI), 100 μg of pND2Lux diluted in WFI, and plasmid with […] body mass diluted in WFI. The images shown in FIG. 9 are representative photomicroscopic fields that include both conducting airway and pulmonary parenchyma.

Data set [2] has as its system macaque respiratory tissues. Briefly: Bronchoscopic administration of plasmid +/- ATA to macaque lung, luciferase assay and histology. The data set is classed as in vivo. The note with it: 48 hours after treatment, H&E. The method, then:
Extending the experiment from murine to nonhuman primate respiratory tissues, the activity of ‘free’ plasmid DNA +/− ATA in macaque respiratory tissues using male rhesus macaques was tested. Initially, the lavage fluid is tested for DNAse activity +/− ATA by incubation with plasmid after which gel electrophoresis is performed as described above with murine lung lavage samples. After a 70 day quarantine, the animals are treated using three general techniques. For direct administration of […] to pulmonary parenchyma, macaques are anesthetized (ketamine, veterinarian assisted) and a pediatric bronchoscope will be passed per nasum with direct visualization of the bronchial tree. Typically, plasmid preparations (3 ml/Kg macaque weight) or related treatments (plasmid/ATA mixtures etc.) are instilled directly via the bronchoscope into the right lower lobe. The left upper lobe of the same macaque is used as an internal control. […]
As described above, relative luciferase activity is determined using the Enhanced Luciferase Assay Kit and a Monolight 2010 luminometer (both from Analytical Luminescence Laboratories, San Diego, Calif.). […] Luciferase light emissions from 31 microliters of the lysate are measured over a 10 second period, and results are expressed as a function of total protein, total tissue mass, and total DNA dose.

`O=C(O)C1=CC(=C(c2ccc(O)c(C(=O)O)c2)c2ccc(O)c(C(=O)O)c2)C=CC1=O` [ATA, aurin tricarboxylic acid]: the Toxicity to cells entry in the data set with NIH3T3 is “toxic and killed cells”; with 16HBE14o, “toxic and killed cells”. Moreover, the “enhancement of reporter gene expression, test group on average” value in the data set on Macaque Skin is given as 11 fold. The “increase over free DNA transfections” value in the data set with mouse lung (doses of ATA virtually nontoxic to the lung) amounted to 57%. Also, in data set [1] (2 mg/kg ATA or lower doses, during the 48 hours after treatment), the “lethality due to the ATA” value was “no lethality”. In addition, the mice died is 50% in data set [1] (6 mg/kg ATA intratracheal with 100 micrograms plasmid) and 100% in data set [1] (8 mg/kg ATA intratracheal with 100 micrograms plasmid). Moreover, the “pulmonary dose associated with significant mortality” value in data set [1] (intratracheal, mouse) is reported as above 2 μg/g body weight. Further, the “Lung histology (H&E) after intratracheal plasmid +/- ATA” value in data set [1] (mouse lung, two days after treatment, plasmid with 0.5 or 6 mg ATA/g body mass) was “indistinguishable; also recorded: virtually nontoxic to the lung; also recorded: No significant histologic alterations”. The “Health assessment of mice after transfection” value in data set [1] (up to 48 hours after transfection) is “healthy with no physical or behavioral side effects observed”. Besides, the “Histologically apparent acute toxicity” value in data set [2] is listed as “lack of histologically apparent acute toxicity”.

On to `O=C(O)CN(CCN(CC(=O)O)CC(=O)O)CC(=O)O` [EDTA, ethylenediaminetetraacetic acid], for which the “Level of reporter protein expression after intratracheal administration of plasmid, enhancement by co-administration” value in the data set on mouse lung is on record as “Neither EDTA nor citrate significantly enhanced the level of expression”.

For the compound `O=C(O)CC(O)(CC(=O)O)C(=O)O` [sodium citrate], the “Level of reporter protein expression after intratracheal administration of plasmid, enhancement by co-administration” value in the data set on mouse lung (listed as citrate) is listed as “Neither EDTA nor citrate significantly enhanced the level of expression”.
